Measurements published in the NIST ThermoML archive (doi:10.1021/je7004374).

How the values were obtained:
[1] = Liquid; for speed of sound: Sing-around technique in a fixed-path interferometer
[2] = refractive index (Na D-line) (dimensionless); conditions: 298.15 K; 101.33 kPa; Liquid; Standard Abbe refractometry

OCCCO [propan-1,3-diol]
[1]
Conditions | mass density [kg/m3] | speed of sound [m/s]
283.16 K, 101.33 kPa | 1059.09 | –
288.15 K, 101.33 kPa | 1056 | –
292.88 K, 30390 kPa | – | 1721.7
292.89 K, 15200 kPa | – | 1681.2
292.89 K, 45590 kPa | – | 1760.3
292.89 K, 60790 kPa | – | 1797
292.89 K, 75990 kPa | – | 1832.2
292.89 K, 91180 kPa | – | 1865.9
292.89 K, 101320 kPa | – | 1887.8
292.91 K, 100 kPa | – | 1636.5
293.15 K, 100 kPa | 1052.91 | –
293.15 K, 101.33 kPa | – | 1636
293.15 K, 10000 kPa | 1057 | –
293.15 K, 20000 kPa | 1060.96 | –
293.15 K, 30000 kPa | 1064.8 | –
293.15 K, 40000 kPa | 1068.51 | –
293.15 K, 50000 kPa | 1072.11 | –
293.15 K, 60000 kPa | 1075.61 | –
293.15 K, 70000 kPa | 1079.02 | –
293.15 K, 80000 kPa | 1082.34 | –
293.15 K, 90000 kPa | 1085.57 | –
293.15 K, 100000 kPa | 1088.73 | –
293.16 K, 101.33 kPa | 1052.89 | –
298.15 K, 100 kPa | 1049.81 | –
298.15 K, 101.33 kPa | 1049.78 | 1624.5
298.15 K, 10000 kPa | 1053.95 | –
298.15 K, 20000 kPa | 1057.97 | –
298.15 K, 30000 kPa | 1061.86 | –
298.15 K, 40000 kPa | 1065.62 | –
298.15 K, 50000 kPa | 1069.27 | –
298.15 K, 60000 kPa | 1072.82 | –
298.15 K, 70000 kPa | 1076.26 | –
298.15 K, 80000 kPa | 1079.62 | –
298.15 K, 90000 kPa | 1082.89 | –
298.15 K, 100000 kPa | 1086.09 | –
298.16 K, 75990 kPa | – | 1821.4
298.16 K, 91180 kPa | – | 1855.4
298.16 K, 101320 kPa | – | 1877.2
298.17 K, 100 kPa | – | 1624.5
298.17 K, 15200 kPa | – | 1668.7
298.17 K, 30390 kPa | – | 1709.9
298.17 K, 45590 kPa | – | 1748.8
298.17 K, 60790 kPa | – | 1786
303.14 K, 101320 kPa | – | 1868
303.15 K, 100 kPa | 1046.7 | 1613.2
303.15 K, 101.33 kPa | – | 1613.2
303.15 K, 10000 kPa | 1050.89 | –
303.15 K, 20000 kPa | 1054.96 | –
303.15 K, 30000 kPa | 1058.9 | –
303.15 K, 40000 kPa | 1062.72 | –
303.15 K, 45590 kPa | – | 1738.6
303.15 K, 50000 kPa | 1066.41 | –
303.15 K, 60000 kPa | 1070 | –
303.15 K, 60790 kPa | – | 1776
303.15 K, 70000 kPa | 1073.49 | –
303.15 K, 75990 kPa | – | 1811.7
303.15 K, 80000 kPa | 1076.89 | –
303.15 K, 90000 kPa | 1080.2 | –
303.15 K, 91180 kPa | – | 1845.8
303.15 K, 100000 kPa | 1083.43 | –
303.16 K, 101.33 kPa | 1046.65 | –
303.16 K, 15200 kPa | – | 1657.6
303.16 K, 30390 kPa | – | 1699
308.13 K, 100 kPa | – | 1601.9
308.15 K, 100 kPa | 1043.56 | –
308.15 K, 101.33 kPa | – | 1601.8
308.15 K, 10000 kPa | 1047.8 | –
308.15 K, 15200 kPa | – | 1646.6
308.15 K, 20000 kPa | 1051.94 | –
308.15 K, 30000 kPa | 1055.93 | –
308.15 K, 30390 kPa | – | 1688.4
308.15 K, 40000 kPa | 1059.79 | –
308.15 K, 45590 kPa | – | 1728.4
308.15 K, 50000 kPa | 1063.54 | –
308.15 K, 60000 kPa | 1067.17 | –
308.15 K, 60790 kPa | – | 1766
308.15 K, 70000 kPa | 1070.71 | –
308.15 K, 75990 kPa | – | 1802
308.15 K, 80000 kPa | 1074.14 | –
308.15 K, 90000 kPa | 1077.49 | –
308.15 K, 91180 kPa | – | 1836.6
308.15 K, 100000 kPa | 1080.76 | –
308.15 K, 101320 kPa | – | 1858.8
308.16 K, 101.33 kPa | 1043.52 | –
313.12 K, 100 kPa | – | 1590.5
313.12 K, 91180 kPa | – | 1827.4
313.12 K, 101320 kPa | – | 1849.7
313.13 K, 30390 kPa | – | 1678
313.13 K, 45590 kPa | – | 1718.2
313.13 K, 60790 kPa | – | 1756.4
313.13 K, 75990 kPa | – | 1792.6
313.14 K, 15200 kPa | – | 1635.8
313.15 K, 100 kPa | 1040.39 | –
313.15 K, 101.33 kPa | 1040.36 | 1590.5
313.15 K, 10000 kPa | 1044.7 | –
313.15 K, 20000 kPa | 1048.89 | –
313.15 K, 30000 kPa | 1052.94 | –
313.15 K, 40000 kPa | 1056.85 | –
313.15 K, 50000 kPa | 1060.65 | –
313.15 K, 60000 kPa | 1064.33 | –
313.15 K, 70000 kPa | 1067.9 | –
313.15 K, 80000 kPa | 1071.38 | –
313.15 K, 90000 kPa | 1074.77 | –
313.15 K, 100000 kPa | 1078.07 | –
318.15 K, 100 kPa | 1037.21 | –
318.15 K, 101.33 kPa | 1037.19 | 1579.2
318.15 K, 10000 kPa | 1041.57 | –
318.15 K, 20000 kPa | 1045.83 | –
318.15 K, 30000 kPa | 1049.93 | –
318.15 K, 40000 kPa | 1053.9 | –
318.15 K, 50000 kPa | 1057.74 | –
318.15 K, 60000 kPa | 1061.47 | –
318.15 K, 70000 kPa | 1065.09 | –
318.15 K, 80000 kPa | 1068.61 | –
318.15 K, 90000 kPa | 1072.03 | –
318.15 K, 100000 kPa | 1075.37 | –
318.3 K, 100 kPa | – | 1578.9
318.31 K, 30390 kPa | – | 1667.3
318.31 K, 45590 kPa | – | 1708
318.31 K, 60790 kPa | – | 1746.3
318.31 K, 75990 kPa | – | 1783.1
318.31 K, 91180 kPa | – | 1818
318.31 K, 101320 kPa | – | 1840.6
318.32 K, 15200 kPa | – | 1624.6
323.15 K, 101.33 kPa | 1034 | –
328.16 K, 101.33 kPa | 1030.79 | –
333.15 K, 101.33 kPa | 1027.56 | –
338.15 K, 101.33 kPa | 1024.3 | –
343.15 K, 101.33 kPa | 1021.01 | –
348.15 K, 101.33 kPa | 1017.69 | –
353.15 K, 101.33 kPa | 1014.34 | –
358.15 K, 101.33 kPa | 1010.96 | –
363.15 K, 101.33 kPa | 1007.54 | –

Conditions | refractive index
[2] | 1.438
